Laboratory results taken from patent US20250339443A1, “METHOD FOR TREATING OR PREVENTING CALCIUM RELEASE-ACTIVATED CALCIUM CHANNEL OR DISCOIDIN DOMAIN RECEPTOR 2 RELATED DISORDERS OR CONDITIONS” (LumiSTAR Biotechnology, Inc., priority 2023, published 2025).
Where a name gives a salt, the structure may show the parent alone.

What was measured:
DDR2 = biological target: T1, DDR2 (Homo sapiens, UniProt Q16832); test: DDR2 activation (anti-phosphotyrosine Western blot) in HEK293T cells overexpressing DDR2, collagen-stimulated; assay type: cell-based; settings: 10 μM pretreatment 30 minutes, then 50 μg/mL type I collagen 12 hours
T1 construct: expressed in transfected cells; host or cells: HEK293T
T1 sequence (Q16832 22-855): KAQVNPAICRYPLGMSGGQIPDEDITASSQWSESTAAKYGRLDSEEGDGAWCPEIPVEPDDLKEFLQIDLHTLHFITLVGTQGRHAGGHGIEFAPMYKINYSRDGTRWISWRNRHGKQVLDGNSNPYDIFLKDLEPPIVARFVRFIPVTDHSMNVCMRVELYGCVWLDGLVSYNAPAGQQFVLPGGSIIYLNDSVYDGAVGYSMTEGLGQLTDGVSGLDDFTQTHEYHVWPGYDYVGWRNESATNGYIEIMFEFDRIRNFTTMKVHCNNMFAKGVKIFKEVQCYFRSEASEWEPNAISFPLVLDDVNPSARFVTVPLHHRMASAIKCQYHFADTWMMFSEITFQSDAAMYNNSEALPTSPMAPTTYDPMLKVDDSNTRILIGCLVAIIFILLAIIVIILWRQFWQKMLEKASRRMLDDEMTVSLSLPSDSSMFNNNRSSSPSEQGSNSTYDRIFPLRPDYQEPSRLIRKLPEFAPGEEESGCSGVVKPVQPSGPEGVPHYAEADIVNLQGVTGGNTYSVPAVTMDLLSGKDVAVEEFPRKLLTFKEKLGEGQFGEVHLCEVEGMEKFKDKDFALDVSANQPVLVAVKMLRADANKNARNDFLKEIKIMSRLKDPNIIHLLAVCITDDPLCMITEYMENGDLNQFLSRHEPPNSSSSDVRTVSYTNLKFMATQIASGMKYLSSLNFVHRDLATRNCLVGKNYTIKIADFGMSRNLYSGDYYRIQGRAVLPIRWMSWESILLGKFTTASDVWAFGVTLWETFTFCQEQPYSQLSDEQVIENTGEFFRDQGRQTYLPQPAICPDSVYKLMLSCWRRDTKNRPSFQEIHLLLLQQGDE
Procedure: FIG. 1A, FIG. 1B, FIG. 1C, FIG. 1D, FIG. 1E, FIG. 1F, FIG. 1G, FIG. 1H, FIG. 1I, FIG. 1J, FIG. 1K, FIG. 1L, FIG. 1M, and FIG. 1N show WRG-28 and atovaquone (Av) suppress the activation of DDR2 and calcium release-activated calcium (CRAC) channel. FIG. 1A indicates HEK293T cells were transiently overexpressed with DDR2 and then pretreated with different compounds (10 μM), including WRG-28, Av, donepezil hydrochloride (Dh), terazosin hydrochloride (Th), verapamil and flecainide for 30 minutes. Verapamil and flecainide were used as negative control here. After that, cells were treated with 50 μg/mL type I collagen for 12 hours. Cell lysates were harvested and subjected to Western blot analysis with antibodies against phosphotyrosine antibody (clone 4G10), DDR2, and β-actin. […] CRAC channel activity was evaluated by applying 1 μM thapsigargin (Thap.) in a calcium-free solution to deplete the endoplasmic reticulum calcium store, followed by the reintroduction of 2 mM Ca^2+ in an external solution. […] Further analyses are presented in FIG. 1I and FIG. 1J, where the second peak of each wave and rate of entry were analyzed. […] The Orai1 and Stim1 puncta in HEK293T cells overexpressed with CFP-Orai1/Stim1-mCherry were assessed. […]
Cell lysates were harvested in RIPA buffer (150 mM NaCl, 1 mM EGTA, 50 mM Tris pH 7.4, 10% glycerol, 1% Triton X-100, 1% sodium deoxycholate, 0.1% SDS, and protease inhibitor cocktail) and collected from culture dish with cell scrapers. […] The protein expression levels were assessed by specific primary antibodies, including antibodies against phosphotyrosine (clone 4G10; Millipore), DDR2 (R&D), α-SMA (Sigma), Collagen 1a1 (Boster), E-cadherin (BD Biosciences), SGLT2 (Proteintech), NHE1 (Novus) and β-actin (Clone C4, Millipore), followed by incubating with secondary antibodies conjugated with HRP and detected by ECL kit (Thermo Scientific).
To examine the impact of these compounds on DDR2 activation, HEK293T cells overexpressing DDR2 were pretreated with various compounds. […] The activation of DDR2 was evaluated using an anti-phosphotyrosine antibody. […]

[1] = tested on: BLM-induced pulmonary fibrosis; test: Bleomycin-induced lung fibrosis mouse model; assay type: in vivo; settings: 14 days, Nintedanib 60 mg/kg/day, WRG-28 5 mg/kg/day, Av 5 mg/kg/day
From the text: A Bleomycin (BLM)-induced lung fibrosis mouse model was used, and the timelines of operation and drug delivery are depicted in FIG. 11A. […] The hydroxyproline content, serving as a marker of collagen deposition, was extracted from the right lobe and analyzed; the results are shown in FIG. 11C. FIG. 11D depicts histological analysis derived from the left lobe, quantifying the fibrotic area through staining with Masson's Trichrome and Picrosirius red, respectively.
8-to-10-week-old male WT (C57BL/6) mice received intratracheal instillation of bleomycin (bleocin; Nippon Kayaku) at the dose of 3 mg/kg diluted in PBS or PBS only (sham). To study fibrosis, lung samples were collected on day 21 for further analysis.
Lung function was assessed using the flexi Vent system (Scireq, Montreal, QC, Canada). Mice were tracheostomized and ventilated at a rate of 150 breaths/min, tidal volume of 10 ml/kg, and a positive end-expiratory pressure (PEEP) of 2-3 cmH2O. A deep inflation perturbation was used to estimate the inspiratory capacity (IC). Pressure-Volume loops were generated by constant increasing pressure, followed by regular decreasing pressure. Other lung function parameters like resistance, compliance, and elastance were measured by using SnapShot-150.
Levels of hydroxyproline in lung tissues were measured using the Hydroxyproline Colorimetric Assay kit (BioVision, Milpitas, CA, USA). Briefly, 10 mg of frozen right middle lobes homogenized in 100 μL of hydrochloric acid (HCl, 12 N), and hydrolyzed at 120° C. for 3 h. Then, 10 μL of individual samples were used to quantify the absorbance at 560 nm. Hydroxyproline content was presented in μg per lobe.
Mouse left lungs were fixed overnight in 4% paraformaldehyde (PFA), embedded in paraffin, and sectioned in 5 μm thickness for picrosirius red (Abcam, Cambridge, UK) and Masson's trichrome staining (Sigma Aldrich, MO, USA). Measurement of fibrotic area was quantified using ImageJ software (NIH, http://rsbweb.nih.gov/ij/).
The efficacy of WRG-28 and Av in treating pulmonary fibrosis was examined in vivo using a BLM-induced pulmonary fibrosis mouse model for evaluation. 50 μL of Bleomycin (BLM, 3 mg/kg) or PBS were introduced by intratracheal instillation on day 0 to induce fibrosis or serve as the control group, respectively. This was followed by the administration of various compounds for 14 days (Nintedanib: 60 mg/kg/day, WRG-28:5 mg/kg/day, Av: 5 mg/kg/day). Lung function evaluation was conducted on day 21 (FIG. 11A). Nintedanib, an FDA-approved drug for idiopathic pulmonary fibrosis (IPF) treatment, was used as the positive control. The results of the lung function evaluation are depicted in FIG. 11B. […] The degree of these changes can be reversed through treatment with Nintedanib, WRG-28 or Av. […] Histological analysis was conducted through staining techniques to quantify the fibrotic area.

CRAC channel = CRAC channel (Homo sapiens, UniProt Q96D31); test: CRAC channel activity / SOCE by Fura 2-AM cytosolic Ca2+ imaging in HEK293T cells; assay type: cell-based; set-up: endogenous in cells; host or cells: HEK293T; settings: 10 μM, 1 μM thapsigargin then 2 mM Ca2+
Procedure: CRAC channel activity was evaluated by applying 1 μM thapsigargin (Thap.) in a calcium-free solution to deplete the endoplasmic reticulum calcium store, followed by the reintroduction of 2 mM Ca^2+ in an external solution. The concentration of cytosolic calcium ions increases as calcium flows through the CRAC channel, leading to the second peak in cytosolic calcium waves. […] Each bar represents the mean value derived from 47 to 103 cells. […] Each bar represents the mean value derived from 83 to 176 cells. […] Further analyses are presented in FIG. 1I and FIG. 1J, where the second peak of each wave and rate of entry were analyzed. Each bar represents the mean value derived from 72 to 108 cells. […] In all the graphs, each bar represents mean±SEM and *, **, and *** denote p-value <0.05, 0.01, and 0.001, respectively.
Cells were then washed and incubated with the same solution in addition to the supplement of Fura 2-AM for another 15 minutes for fully de-esterification. […] 1 μM thapsigargin was added to induce endoplasmic reticulum (ER) calcium store depletion followed by applying 2 mM calcium solution to assess the activation of calcium release-activated calcium (CRAC) channels. Cells were alternately excited at 340 and 380 nm, and images were acquired every 2 seconds. […] All the images were analyzed by using IGOR Pro software. […]

Jurkat T cells = test: Cytokine secretion in T cells (ELISA); assay type: cell-based, human; settings: PHA/PMA induction, culture medium
[2] = tested on: THP-1 derived macrophages; test: Cytokine secretion in macrophages (ELISA); assay type: cell-based, human; settings: IFN-γ/LPS induction, culture medium

Sequence of CRAC channel (Q96D31 whole entry): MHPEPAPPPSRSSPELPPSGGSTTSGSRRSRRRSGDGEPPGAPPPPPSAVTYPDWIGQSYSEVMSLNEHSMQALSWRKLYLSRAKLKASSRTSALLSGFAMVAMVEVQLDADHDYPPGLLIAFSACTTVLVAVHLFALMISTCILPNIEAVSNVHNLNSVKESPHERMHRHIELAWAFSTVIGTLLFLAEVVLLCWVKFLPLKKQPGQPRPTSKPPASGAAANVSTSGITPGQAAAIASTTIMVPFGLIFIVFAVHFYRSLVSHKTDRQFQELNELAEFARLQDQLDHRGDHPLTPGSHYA

With `COc1cc2nc(N3CCN(C(=O)C4CCCO4)CC3)nc(N)c2cc1OC` (stereo not shown) [Th, terazosin hydrochloride] the “activation of DDR2 (phosphotyrosine)” value (DDR2) was “significantly reduced”.

With `COC(=O)c1ccc2c(c1)NC(=O)/C2=C(\Nc1ccc(N(C)C(=O)CN2CCN(C)CC2)cc1)c1ccccc1` [Nintedanib] the “BLM-induced changes in lung function (capacity, compliance, resistance, elastance)” value ([1]; day 21) was “reversed”, the “fibrotic area (Masson's trichrome and Picrosirius Red staining)” value ([1]; left lobe) was “effectively reduces” and the “hydroxyproline content (degree of fibrosis)” value ([1]; right lobe) was “inhibits the progression of fibrosis”.

`COc1cc2c(cc1OC)C(=O)C(CC1CCN(Cc3ccccc3)CC1)C2` (stereo not shown) [Dh, donepezil hydrochloride] was tested, and the “activation of DDR2 (phosphotyrosine)” value (DDR2) was “significantly reduced” and the “second peak and rate of SOCE” value (CRAC channel) was “did not show significant effects”.

For `Cc1cccc(F)c1C(=O)Nc1cnc(-c2cc3c(cc2Cl)OC(F)(F)O3)cn1` [CM-4620], the “secretion of IL-2 in T cells” value (Jurkat T cells) was “significantly reduced”, the “secretion of IL-2 in macrophages” value [2] was “significantly reduced” and the “secretion of IL-6 in macrophages” value [2] was “significantly reduced”. For the same compound, the “secretion of TNF-β in macrophages” value [2] was “significantly reduced”.
